US20240269298A1, “PHOSPHONYL DERIVATIVE, AND COMPOSITION AND PHARMACEUTICAL APPLICATION THEREOF” (XIZANG HAISCO PHARMACEUTICAL CO., LTD., priority 2021, published 2024)
Like-named read-outs stand apart in the source and are kept apart here.

Assays:
[1] = system: NCI-H1975 (EGFR-L858R-T790M) cells; experiment: Inhibitory activity on proliferation of NCI-H1975 (EGFR-L858R-T790M) cells (CTG, 72 h); type: cell-based; conditions: Homo sapiens
Method in brief: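 IC50 values come from S-shaped dose-survival fits of CTG signal expressed as % of vehicle. Compound exposure lasted 72 h at 37 °C with 0.1% DMSO; seeding was 3000 A431 cells/well in DMEM+10% FBS and 1000 NCI-H1975 cells/well in RPMI1640+10% FBS.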

A431 (EGFR-WT) cells = experiment: Inhibitory activity on proliferation of A431 (EGFR-WT) cells (CTG, 72 h); type: cell-based; conditions: Homo sapiens, A-431
Experimental: NCI-H1975 (EGFR-L858R-T790M) and A431 (EGFR-WT) cells were purchased from ATCC and cultured in an incubator at 37° C. with 5% CO2, and the culture mediums were RPMI1640+10% FBS and DMEM+10% FBS, respectively. On the first day, NCI-H1975 (EGFR-L858R-T790M) and A431 (EGFR-WT) cells in the logarithmic phase were collected, and viable cells were counted using an automatic cell analyzer (countstar). The cell suspensions were adjusted with the culture mediums and plated on a 96-well cell culture plate at 1000 cells/well for NCI-H1975 (EGFR-L858R-T790M) cells and at 3000 cells/well for A431 cells. The next day, the culture mediums were aspirated, and 90 μL of fresh culture mediums and 10 μL of the compounds at different concentrations were added to each well, wherein the final concentration of DMSO in each well was 0.1%. The plate was cultured in the incubator at 37° C. with 5% CO2 for 72 hours. After 72 hours of drug treatment, 50 μL of CTG solution (promega, G7572), which was already pre-melted and equilibrated to room temperature, was added to each well, and the mixtures were uniformly mixed for 2 min using a microplate shaker. The plate was placed at room temperature for 10 min, and then […] signal values were measured using a microplate reader (PHERAstar FSX).
Surviving cells % was calculated based on Vsample/Vvehicle control×100%, wherein Vsample was the readout of the drug-treated group, and Vvehicle control was the average value of the vehicle control group. Using the origin 9.2 software and nonlinear regression model, S-shaped dose-survival curves were plotted, and IC50 values were calculated.

[2] = read-out: IC50 (value in brackets)

Row | IC50 ([1]; read-out: IC50 (class symbol)) [nM] | IC50 [1, 2] [nM] | IC50 (A431 (EGFR-WT) cells) [µM] | SMILES
1 | 100 to 500 | 176 | ≥ 10 | COc1cc(N2CCC(CN3CCC4(CCCN(c5cc6c(cc5F)C(=O)N(C5CCC(=O)NC5=O)C6=O)C4)CC3)CC2)c(-c2cnn(C)c2)cc1Nc1ncc(Br)c(Nc2ccc(-c3ccccc3)cc2P(C)(C)=O)n1 (centres unmarked) [Compound 61, 5-(9-((1-(4-((5-bromo-4-((3-(dimethylphosphoryl)-[1,1′-biphenyl]-4-yl)amino)pyrimidin-2-yl)amino)-5-methoxy-2-(1-methyl-1H-pyrazol-4-yl)phenyl)piperidin-4-yl)methyl)-2,9-diazaspiro[5.5]undecan-2-yl)-2-(2,6-dioxopiperidin-3-yl)-6-fluoroisoindoline-1,3-dione]
2 | < 100 | 40 | ≥ 10 | COc1cc(N2CCN(C3CN(c4ccc5c(c4)C(=O)N(C4CCC(=O)NC4=O)C5=O)C3)CC2)c(-c2cnn(C)c2)cc1Nc1ncc(Br)c(Nc2ccc(C3CC3)cc2P(C)(C)=O)n1 (centres unmarked) [Compound 150, 5-(3-(4-(4-((5-bromo-4-((4-cyclopropyl-2-(dimethylphosphoryl)phenyl)amino)pyrimidin-2-yl)amino)-5-methoxy-2-(1-methyl-1H-pyrazol-4-yl)phenyl)piperazin-1-yl)azetidin-1-yl)-2-(2,6-dioxopiperidin-3-yl)isoindoline-1,3-dione]
3 |  |  | ≥ 10 | COc1cc(N2CCC3(CCN(c4ccc5c(c4)C(=O)N(C4CCC(=O)NC4=O)C5=O)CC3)CC2)c(-c2cnn(C)c2)cc1Nc1ncc(Br)c(Nc2ccc(C3CC3)cc2P(C)(C)=O)n1 (centres unmarked) [Compound 165, 5-(9-(4-((5-bromo-4-((4-cyclopropyl-2-(dimethylphosphoryl)phenyl)amino)pyrimidin-2-yl)amino)-5-methoxy-2-(1-methyl-1H-pyrazol-4-yl)phenyl)-3,9-diazaspiro[5.5]undecan-3-yl)-2-(2,6-dioxopiperidin-3-yl)isoindoline-1,3-dione]
4 | 100 to 500 | 152 | ≥ 10 | COc1cc(N2CCC(CN3CCN(c4cc5c(cc4F)C(=O)N(C4CCC(=O)NC4=O)C5=O)CC3)CC2)c(-c2cnn(C)c2)cc1Nc1ncc(Cl)c(Nc2ccc(C3CC3)cc2P(C)(C)=O)n1 (centres unmarked) [Compound 160, 5-(4-((1-(4-((5-chloro-4-((4-cyclopropyl-2-(dimethylphosphoryl)phenyl)amino)pyrimidin-2-yl)amino)-5-methoxy-2-(1-methyl-1H-pyrazol-4-yl)phenyl)piperidin-4-yl)methyl)piperazin-1-yl)-2-(2,6-dioxopiperidin-3-yl)-6-fluoroisoindoline-1,3-dione]
5 |  |  | ≥ 10 | COc1cc(N2CCC(CN3CC4CN(c5ccc6c(c5)C(=O)N(C5CCC(=O)NC5=O)C6=O)CC4C3)CC2)c(C2CC2)cc1Nc1ncc(Br)c(Nc2ccc3nccnc3c2P(C)(C)=O)n1 (centres unmarked) [Compound 34, 5-(5-((1-(4-((5-bromo-4-((5-(dimethylphosphoryl)quinoxalin-6-yl)amino)pyrimidin-2-yl)amino)-2-cyclopropyl-5-methoxyphenyl)piperidin-4-yl)methyl)hexahydropyrrolo[3,4-c]pyrrol-2(1H)-yl)-2-(2,6-dioxopiperidin-3-yl)isoindoline-1,3-dione]
6 | 100 to 500 | 165 | ≥ 10 | COc1cc(N2CCC(C3CCN(CC4CCN(c5ccc6c(c5)C(=O)N(C5CCC(=O)NC5=O)C6=O)CC4)CC3)CC2)c(-c2cnn(C)c2)cc1Nc1ncc(Br)c(Nc2ccc(-c3ccccc3)cc2P(C)(C)=O)n1 (centres unmarked) [Compound 36, 5-(4-((1′-(4-((5-bromo-4-((3-(dimethylphosphoryl)-[1,1′-biphenyl]-4-yl)amino)pyrimidin-2-yl)amino)-5-methoxy-2-(1-methyl-1H-pyrazol-4-yl)phenyl)-[4,4′-bipiperidin]-1-yl)methyl)piperidin-1-yl)-2-(2,6-dioxopiperidin-3-yl)isoindoline-1,3-dione]
7 | < 100 | 55 | ≥ 10 | COc1cc(N2CCN(C3CCN(CC4CCN(c5ccc6c(c5)C(=O)N(C5CCC(=O)NC5=O)C6=O)CC4)CC3)CC2)c(-c2cnn(C)c2)cc1Nc1ncc(Cl)c(Nc2ccc(-c3ccccc3)cc2P(C)(C)=O)n1 (centres unmarked) [Compound 40, 5-(4-((4-(4-(4-((5-chloro-4-((3-(dimethylphosphoryl)-[1,1′-biphenyl]-4-yl)amino)pyrimidin-2-yl)amino)-5-methoxy-2-(1-methyl-1H-pyrazol-4-yl)phenyl)piperazin-1-yl)piperidin-1-yl)methyl)piperidin-1-yl)-2-(2,6-dioxopiperidin-3-yl)isoindoline-1,3-dione]
8 | 100 to 500 | 109 | ≥ 10 | COc1cc(N2CCC3(CCN(c4ccc5c(c4)C(=O)N(C4CCC(=O)NC4=O)C5=O)CC3)CC2)c(-c2cnn(C)c2)cc1Nc1ncc(Br)c(Nc2ccccc2P(C)(C)=O)n1 (centres unmarked) [Compound 164, 5-(9-(4-((5-bromo-4-((2-(dimethylphosphoryl)phenyl)amino)pyrimidin-2-yl)amino)-5-methoxy-2-(1-methyl-1H-pyrazol-4-yl)phenyl)-3,9-diazaspiro[5.5]undecan-3-yl)-2-(2,6-dioxopiperidin-3-yl)isoindoline-1,3-dione]
9 | < 100 | 58 | ≥ 10 | COc1cc(N2CCC(CN3CCN(c4ccc5c(c4)CN(C4CCC(=O)NC4=O)C5=O)CC3)CC2)c(-c2cnn(C)c2)cc1Nc1ncc(Cl)c(Nc2ccc(-c3ccccc3)cc2P(C)(C)=O)n1 (centres unmarked) [Compound 105, 3-(5-(4-((1-(4-((5-chloro-4-((3-(dimethylphosphoryl)-[1,1′-biphenyl]-4-yl)amino)pyrimidin-2-yl)amino)-5-methoxy-2-(1-methyl-1H-pyrazol-4-yl)phenyl)piperidin-4-yl)methyl)piperazin-1-yl)-1-oxoisoindolin-2-yl)piperidine-2,6-dione]
10 | < 100 | 16 | ≥ 10 | COc1cc(N2CCN(C[C@H]3CCN(c4ccc5c(c4)C(=O)N(C4CCC(=O)NC4=O)C5=O)C3)CC2)c(-c2cnn(C)c2)cc1Nc1ncc(Br)c(Nc2ccc(C3CC3)cc2P(C)(C)=O)n1 (stereo partly drawn) [Compound 121, 5-((R)-3-((4-(4-((5-bromo-4-((4-cyclopropyl-2-(dimethylphosphoryl)phenyl)amino)pyrimidin-2-yl)amino)-5-methoxy-2-(1-methyl-1H-pyrazol-4-yl)phenyl)piperazin-1-yl)methyl)pyrrolidin-1-yl)-2-(2,6-dioxopiperidin-3-yl)isoindoline-1,3-dione]
11 | < 100 | 77 | ≥ 10 | COc1cc(N2CCC(N3CCN(CC4(F)CCN(c5ccc6c(c5)C(=O)N(C5CCC(=O)NC5=O)C6=O)CC4)CC3)CC2)c(-c2cnn(C)c2)cc1Nc1ncc(Br)c(Nc2ccc(-c3ccccc3)cc2P(C)(C)=O)n1 (centres unmarked) [Trifluoroacetate of compound 86, 5-(4-((4-(1-(4-((5-bromo-4-((3-(dimethylphosphoryl)-[1,1′-biphenyl]-4-yl)amino)pyrimidin-2-yl)amino)-5-methoxy-2-(1-methyl-1H-pyrazol-4-yl)phenyl)piperidin-4-yl)piperazin-1-yl)methyl)-4-fluoropiperidin-1-yl)-2-(2,6-dioxopiperidin-3-yl)isoindoline-1,3-dione]
12 |  |  | ≥ 10 | COc1cc(N2CCC(N3CCN(c4ccc(N5CCC(=O)NC5=O)cc4)CC3)CC2)c(-c2cnn(C)c2)cc1Nc1ncc(Cl)c(Nc2ccc(C3CC3)cc2P(C)(C)=O)n1 [Compound 133, 1-(4-(4-(1-(4-((5-chloro-4-((4-cyclopropyl-2-(dimethylphosphoryl)phenyl)amino)pyrimidin-2-yl)amino)-5-methoxy-2-(1-methyl-1H-pyrazol-4-yl)phenyl)piperidin-4-yl)piperazin-1-yl)phenyl)dihydropyrimidine-2,4(1H,3H)-dione]
13 |  |  | ≥ 10 | COc1cc(N2CCN(c3ccc4c(c3)C(=O)N(C3CCC(=O)NC3=O)C4=O)CC2)c(-c2cnn(C)c2)cc1Nc1ncc(Cl)c(Nc2ccc(C3CC3)cc2P(C)(C)=O)n1 (centres unmarked) [Compound 167, 5-(4-(4-((5-chloro-4-((4-cyclopropyl-2-(dimethylphosphoryl)phenyl)amino)pyrimidin-2-yl)amino)-5-methoxy-2-(1-methyl-1H-pyrazol-4-yl)phenyl)piperazin-1-yl)-2-(2,6-dioxopiperidin-3-yl)isoindoline-1,3-dione]
14 |  |  | ≥ 10 | COc1cc(N2CCC(N3CCN(c4ccc(N5CCC(=O)NC5=O)cc4)CC3)CC2)c(-c2cnn(C)c2)cc1Nc1ncc(Cl)c(Nc2ccc(-c3ccccc3)cc2P(C)(C)=O)n1 [Compound 137, 1-(4-(4-(1-(4-((5-chloro-4-((3-(dimethylphosphoryl)-[1,1′-biphenyl]-4-yl)amino)pyrimidin-2-yl)amino)-5-methoxy-2-(1-methyl-1H-pyrazol-4-yl)phenyl)piperidin-4-yl)piperazin-1-yl)phenyl)dihydropyrimidine-2,4(1H,3H)-dione]
